The conditions of series [1]: patients with chronic myelogenous leukemia; ref Picard, et al 2007; cited from earlier work.
Series [2] concerns histone H3 acetylation in peripheral blood mononuclear cells (PBMCs). As to conditions: human, in vivo.
The test system of series [3] is ABCB1 gene expression in tumor biopsy samples. The note with it: in vivo.
Series [4] relates to ABCB1 gene expression in PBMCs. As to conditions: human, in vivo.
The subject of a further series is fetal hemoglobin (HbF). The experiment in a line: Blood fetal hemoglobin. It is filed as in vivo, patients.

Where “and” joins values, the source holds several entries; their conditions need not be identical. Identical values can stand only once.

We go through two molecules from paper PMC2838427 (British journal of haematology, 2009).

On to `Cc1ccc(NC(=O)c2ccc(CN3CCN(C)CC3)cc2)cc1Nc1nccc(-c2cccnc2)n1` [imatinib], for which the “trough plasma threshold associated with response” value in series [1] is 1002 ng/mL.
Consider `C/C=C1\NC(=O)[C@H]2CSSCC/C=C/[C@H](CC(=O)N[C@H](C(C)C)C(=O)N2)OC(=O)[C@H](C(C)C)NC1=O` [romidepsin, (E)-(1S,4S,10S,21R)-7-[(Z)-Ethylidene]-4,21-diisopropyl-2-oxa-12,13-dithi a-5,8,20,23-tetraazabicyclo[8,7,6]-tricos-16-ene-3,6,9,22-pentanone], for which, in series [2], the “patients with at least a 2-fold increase in global histone acetylation” value came out at 73%; the “patients with fold increase x < 2 in histone acetylation, number (%)” value is 21 (57%) and 11 (61%). In series [3], the “fold increase in ABCB1 in a biopsy sample, one patient” value is “greater than 30”; the “fold increase in ABCB1 in biopsy samples, all other values” was “below 8”; the “increase in median ABCB1 level on-study to off study” value is given as 50%; the “pre/post sample sets with greater than 50% increase in ABCB1 expression level” value was “Fourteen”. Besides, the “pre/post samples with two-fold or greater increase in ABCB1 level” value in series [3] was “eight”. In series [4], the “median fold increase in ABCB1 mRNA expression” value was 2.74 and 1.78; the “patients having ABCB1 levels 2-fold or higher than baseline” value is 56% and 37%; the “samples again showing less than 2-fold ABCB1 increase at 24 h” value is reported as 71%. Also, in the series with fetal hemoglobin (HbF) (61 patients), the “median time to peak induction of HbF” value came out at 99 days and the “range of time to peak induction of HbF” value lay in the range of 27 to 295 days. Also, in the series on fetal hemoglobin (HbF) (CR/PR), the “HbF fold change, range” value is listed as 1.69–23.00. Besides, in the series on fetal hemoglobin (HbF) (Final vs baseline, n=49), the “patients with fold increase 2 ≤ x < 4 in hemoglobin F, number (%)” value is reported as 9 (18%); the “patients with fold increase x < 2 in hemoglobin F, number (%)” value was 20 (41%); the “patients with fold increase x ≥ 4 in hemoglobin F, number (%)” value is 20 (41 %). For the same molecule, in the series on fetal hemoglobin (HbF) (Peak vs baseline, n=52), the “patients with fold increase 2 ≤ x < 4 in hemoglobin F, number (%)” value was 7 (13%); the “patients with fold increase x < 2 in hemoglobin F, number (%)” value is recorded as 14 (27%); the “patients with fold increase x ≥ 4 in hemoglobin F, number (%)” value is 31 (60%). In addition, the “HbF fold change, range” value in the series on fetal hemoglobin (HbF) (SD/PD) is on record as 0.95–11.50. For the same molecule, the “patients with > 4-fold rise in HbF levels” value in the series with fetal hemoglobin (HbF) (peak vs baseline) turned out to be 60%. The “patients with two-fold or greater induction of fetal hemoglobin” value with fetal hemoglobin (HbF) (peak vs baseline, zero baselines reassigned 0.2%) is 73%.
